Test results from ChEMBL document CHEMBL4334464, “From Phenylthiazoles to Phenylpyrazoles: Broadening the Antibacterial Spectrum toward Carbapenem-Resistant Bacteria” (J Med Chem, 2019).
Values after ≈ are worked out from the molar mass of the structure shown. Active and inactive are the calls of the source. The calls are words filed in the database; no cut-off is given here.

How the values were obtained:
Klebsiella pneumoniae [1] = assay: Antibacterial activity against Klebsiella pneumoniae BAA-1144 clinical isolates after 18 to 20 hrs in aerobic condition by CLSI-based broth microdilution assay; type: functional
Pseudomonas aeruginosa [2] = assay: microbe, parasite or virus in culture; conditions: ATCC 9027
Description: Antibacterial activity against Pseudomonas aeruginosa ATCC 9027 clinical isolates after 18 to 20 hrs in aerobic condition by CLSI-based broth microdilution assay

Staphylococcus aureus [3] = assay: Antibacterial activity against Methicillin-resistant Staphylococcus aureus NRS123-USA400 clinical isolates after 18 to 20 hrs in aerobic condition by CLSI protocol based broth microdilution assay; type: functional
Clostridioides difficile = assay: Antibacterial activity against Clostridium difficile ATCC BAA 1870 incubated for 48 hrs in anaerobic condition by CLSI-based broth microdilution assay; type: functional; conditions: ATCC BAA 1870, 48 h
Staphylococcus aureus [4] = assay: Bactericidal activity against methicillin-resistant Staphylococcus aureus NRS123-USA400 clinical isolates at 5 times MIC incubated over 24 hrs followed by replating on tryptic soy agar plate and further incubated for 18 to 20 hrs by time kill assay; type: functional, organism-based
Acinetobacter baumannii [5] = assay: microbe, parasite or virus in culture; conditions: ATCC BAA 1747
Description: Antibacterial activity against Acinetobacter baumannii ATCC BAA 1747 after 18 to 20 hrs in aerobic condition by CLSI-based broth microdilution assay

Staphylococcus aureus [6] = assay: Antibacterial activity against Methicillin-resistant Staphylococcus aureus NRS385-USA500 clinical isolates after 18 to 20 hrs in aerobic condition by CLSI protocol based broth microdilution assay; type: functional
Acinetobacter baumannii [7] = assay: Antibacterial activity against Acinetobacter baumannii NR 17786 clinical isolates after 18 to 20 hrs in aerobic condition by CLSI-based broth microdilution assay; type: functional
Escherichia coli [8] = assay: Antimicrobial activity against Escherichia coli JW55031 harboring deltatolC mutant after 18 to 20 hrs in aerobic condition by CLSI protocol based broth microdilution assay; type: functional
Salmonella enteritidis [9] = assay: Antibacterial activity against Salmonella enteritidis ATCC 14028 clinical isolates after 18 to 20 hrs in aerobic condition by CLSI-based broth microdilution assay; type: functional, Salmonella enterica subsp. enterica serovar Enteritidis; conditions: Salmonella enterica
Staphylococcus aureus [10] = assay: Antibacterial activity against linezolid-resistant/Methicillin-resistant Staphylococcus aureus NRS119 clinical isolates after 18 to 20 hrs in aerobic condition by CLSI protocol based broth microdilution assay; type: functional
Staphylococcus aureus [11] = assay: Antibacterial activity against Methicillin-sensitive Staphylococcus aureus NRS107 clinical isolates after 18 to 20 hrs in aerobic condition by CLSI protocol based broth microdilution assay; type: functional
Salmonella enteritidis [12] = assay: Ratio of MBC to MIC for Salmonella enteritidis ATCC 14028 clinical isolates; type: functional, Salmonella enterica subsp. enterica serovar Enteritidis
Escherichia coli [13] = assay: Ratio of MBC to MIC for Escherichia coli BW25113 clinical isolates; type: functional
Escherichia coli [14] = assay: Antibacterial activity against Escherichia coli BW25113 clinical isolates after 18 to 20 hrs in aerobic condition by CLSI-based broth microdilution assay; type: functional
Enterococcus faecium = assay: Antibacterial activity against vancomycin-resistant Enterococcus faecium ATCC 700221 clinical isolates after 18 to 20 hrs in aerobic condition by CLSI-based broth microdilution assay; type: functional
Staphylococcus aureus [15] = assay: Antibacterial activity against vancomycin-resistant Staphylococcus aureus isolate 12 after 18 to 20 hrs in aerobic condition by CLSI-based broth microdilution assay; type: functional
Acinetobacter baumannii [16] = assay: Ratio of MBC to MIC for Acinetobacter baumannii ATCC BAA 1141 clinical isolates; type: functional
Acinetobacter baumannii [17] = assay: Ratio of MBC to MIC for Acinetobacter baumannii ATCC BAA 1747 clinical isolates; type: functional
Salmonella enteritidis [18] = assay: Antibacterial activity against Salmonella enteritidis ATCC 13076 clinical isolates after 18 to 20 hrs in aerobic condition by CLSI-based broth microdilution assay; type: functional, Salmonella enterica subsp. enterica serovar Enteritidis; conditions: Salmonella enterica
[19] = tested on: Staphylococcus epidermidis; assay: Ratio of MBC to MIC for Staphylococcus epidermidis NRS101 clinical isolates; type: functional
Enterococcus faecalis = assay: Ratio of MBC to MIC for vancomycin-resistant Enterococcus faecalis ATCC 51299 clinical isolates; type: functional
Escherichia coli [20] = assay: Antibacterial activity against Escherichia coli ATCC 25922 clinical isolates after 18 to 20 hrs in aerobic condition by CLSI-based broth microdilution assay; type: functional
Salmonella enterica = assay: Antibacterial activity against Salmonella enterica NR-170 clinical isolates after 18 to 20 hrs in aerobic condition by CLSI-based broth microdilution assay; type: functional
Escherichia coli [21] = assay: microbe, parasite or virus in culture; conditions: ATCC 1411
Description: Antibacterial activity against Escherichia coli ATCC 1411 clinical isolates after 18 to 20 hrs in aerobic condition by CLSI-based broth microdilution assay

Pseudomonas aeruginosa [22] = assay: Antibacterial activity against Pseudomonas aeruginosa ATCC 15442 clinical isolates after 18 to 20 hrs in aerobic condition by CLSI-based broth microdilution assay; type: functional
Streptococcus pneumoniae = assay: Ratio of MBC to MIC for […] Streptococcus pneumoniae ATCC 700677 clinical isolates; type: functional
Escherichia coli [23] = assay: Ratio of MBC to MIC for Escherichia coli ATCC 35150 clinical isolates; type: functional
Klebsiella pneumoniae [24] = assay: Antibacterial activity against Klebsiella pneumoniae BAA-1706 clinical isolates after 18 to 20 hrs in aerobic condition by CLSI-based broth microdilution assay; type: functional
Pseudomonas aeruginosa [25] = assay: Ratio of MBC to MIC for Pseudomonas aeruginosa ATCC 25619 clinical isolates; type: functional
Staphylococcus aureus [26] = assay: Antibacterial activity against vancomycin-resistant Staphylococcus aureus isolate 10 after 18 to 20 hrs in aerobic condition by CLSI-based broth microdilution assay; type: functional
Acinetobacter baumannii [27] = assay: Antibacterial activity against carbapenem-resistant Acinetobacter baumannii ATCC BAA 1605 clinical isolates after 18 to 20 hrs in aerobic condition by CLSI-based broth microdilution assay; type: functional
Staphylococcus aureus [28] = assay: Antibiofilm activity against methicillin-resistant Staphylococcus aureus NRS384-USA300 clinical isolates assessed as inhibition of biofilm formation at 0.5 times MIC incubated for 24 hrs by crystal violet staining based spectrophotometric method relative to control; type: functional
Klebsiella pneumoniae [29] = assay: Antibacterial activity against carbapenem-resistant Klebsiella pneumoniae ATCC BAA-1705 clinical isolates after 18 to 20 hrs in aerobic condition by CLSI-based broth microdilution assay; type: functional
Klebsiella pneumoniae [30] = assay: Antibacterial activity against carbapenem-resistant Klebsiella pneumoniae ATCC BAA-2146 clinical isolates after 18 to 20 hrs in aerobic condition by CLSI-based broth microdilution assay; type: functional

SMILES	MIC (Klebsiella pneumoniae [1]) [mg/L]	MIC (Pseudomonas aeruginosa [2]) [mg/L]	MIC (Staphylococcus aureus [3]) [mg/L]	MIC (Clostridioides difficile) [mg/L]	Activity (Staphylococcus aureus [4])	MIC (Acinetobacter baumannii [5]) [mg/L]	MIC (Staphylococcus aureus [6]) [mg/L]	MIC (Acinetobacter baumannii [7]) [mg/L]	MIC (Escherichia coli [8]) [mg/L]	MIC (Salmonella enteritidis [9]) [mg/L]	MIC (Staphylococcus aureus [10]) [mg/L]	MIC (Staphylococcus aureus [11]) [mg/L]	Ratio (Salmonella enteritidis [12])	Ratio (Escherichia coli [13])	MIC (Escherichia coli [14]) [mg/L]	MIC (Enterococcus faecium) [mg/L]	MIC (Staphylococcus aureus [15]) [mg/L]	Ratio (Acinetobacter baumannii [16])	Ratio (Acinetobacter baumannii [17])	MIC (Salmonella enteritidis [18]) [mg/L]	also measured
CCCCCC#Cc1ccc(-n2ncc(/C(C)=N/NC3=NCCN3)c2C)cc1	> 128	> 128	4 (≈ 10.6 µM)	4 (≈ 10.6 µM)	Active	> 128	2 (≈ 5.31 µM)	> 128	2 (≈ 5.31 µM)	> 128	2 (≈ 5.31 µM)	4 (≈ 10.6 µM)	>=1	>=1	> 128	2 (≈ 5.31 µM)	2 (≈ 5.31 µM)	>=1	>=1	> 128	Ratio [19]: <3; Ratio (Enterococcus faecalis): <3; MIC (Escherichia coli [20]): > 128 mg/L; MIC (Salmonella enterica): > 128 mg/L; MIC (Escherichia coli [21]): > 128 mg/L; MIC (Pseudomonas aeruginosa [22]): > 128 mg/L; Ratio (Streptococcus pneumoniae): <3; Ratio (Escherichia coli [23]): >=1; MIC (Klebsiella pneumoniae [24]): > 128 mg/L; Ratio (Pseudomonas aeruginosa [25]): >=1; MIC (Staphylococcus aureus [26]): 2 mg/L (≈ 5.31 µM)
CCCC#Cc1ccc(-n2ncc(/C(C)=N/NC(=N)N)c2C)cc1	16 (≈ 49.6 µM)	32 (≈ 99.3 µM)	2 (≈ 6.2 µM)	8 (≈ 24.8 µM)	Active	8 (≈ 24.8 µM)	2 (≈ 6.2 µM)	16 (≈ 49.6 µM)	4 (≈ 12.4 µM)	16 (≈ 49.6 µM)	2 (≈ 6.2 µM)	4 (≈ 12.4 µM)	>=1	>=1	8 (≈ 24.8 µM)	4 (≈ 12.4 µM)	2 (≈ 6.2 µM)	>=1	>=1	16 (≈ 49.6 µM)	MIC (Acinetobacter baumannii [27]): 16 mg/L (≈ 49.6 µM); inhibition (INH) (Staphylococcus aureus [28]): 74%; MIC (Klebsiella pneumoniae [29]): 16 mg/L (≈ 49.6 µM); Ratio [19]: <3; Ratio (Enterococcus faecalis): <3; MIC (Escherichia coli [20]): 8 mg/L (≈ 24.8 µM); MIC (Salmonella enterica): 16 mg/L (≈ 49.6 µM); MIC (Klebsiella pneumoniae [30]): 32 mg/L (≈ 99.3 µM); MIC (Escherichia coli [21]): 16 mg/L (≈ 49.6 µM); MIC (Pseudomonas aeruginosa [22]): 16 mg/L (≈ 49.6 µM); Ratio (Streptococcus pneumoniae): <3; Ratio (Escherichia coli [23]): >=1; MIC (Klebsiella pneumoniae [24]): 8 mg/L (≈ 24.8 µM); Ratio (Pseudomonas aeruginosa [25]): >=1; MIC (Staphylococcus aureus [26]): 2 mg/L (≈ 6.2 µM)
CCCCCC#Cc1ccc(-n2ncc(/C(C)=N/NC(=N)N)c2C)cc1	16 (≈ 45.7 µM)	16 (≈ 45.7 µM)	2 (≈ 5.71 µM)	4 (≈ 11.4 µM)	Active	4 (≈ 11.4 µM)	2 (≈ 5.71 µM)	8 (≈ 22.8 µM)	4 (≈ 11.4 µM)	16 (≈ 45.7 µM)	2 (≈ 5.71 µM)	2 (≈ 5.71 µM)	>=1	>=1	8 (≈ 22.8 µM)	2 (≈ 5.71 µM)	2 (≈ 5.71 µM)	>=1	>=1	8 (≈ 22.8 µM)	MIC (Acinetobacter baumannii [27]): 8 mg/L (≈ 22.8 µM); MIC (Klebsiella pneumoniae [29]): 16 mg/L (≈ 45.7 µM); Ratio [19]: <3; Ratio (Enterococcus faecalis): <3; MIC (Escherichia coli [20]): 8 mg/L (≈ 22.8 µM); MIC (Salmonella enterica): 8 mg/L (≈ 22.8 µM); MIC (Klebsiella pneumoniae [30]): 32 mg/L (≈ 91.3 µM); MIC (Escherichia coli [21]): 16 mg/L (≈ 45.7 µM); MIC (Pseudomonas aeruginosa [22]): 32 mg/L (≈ 91.3 µM); Ratio (Streptococcus pneumoniae): <3; Ratio (Escherichia coli [23]): >=1; MIC (Klebsiella pneumoniae [24]): 8 mg/L (≈ 22.8 µM); Ratio (Pseudomonas aeruginosa [25]): >=1; MIC (Staphylococcus aureus [26]): 2 mg/L (≈ 5.71 µM)
